Structures are written as SMILES. pIC50: −log10 of the molar value.

In one data set the target is bNOS (Homo sapiens, UniProt P29475). Kind of data set: bNOS inhibition (method of Bredt and Snyder). The class given is biochemical. The note with it: Proc. Natl. Acad. Sci. USA (1989) 86, 9030-9033. The text has this:
The NOS-inhibitory action of the compounds of Formula (I) and their physiologically compatible salts can be determined according to the methods by Bredt and Snyder in Proc. Natl. Acad. Sci. USA (1989) 86, 9030-9033.

Regarding `NC1=Nc2c(F)cccc2C2CCCC12F` (centres unmarked) [Example 2, 4-amino-3a,6-difluoro-2,3,3a,9b-tetrahydro-1H-cyclopenta[c]quinoline], the pIC50 against bNOS was 6.23.

The molecule `NC1=Nc2ccc(Br)cc2C2CCCC12F` (centres unmarked) [Example 3, 4-Amino-8-bromo-3a-fluoro-2,3,3a,9b-tetrahydro-1H-cyclopenta[c]quinoline] registered a melting point of 220 °C.

Source of the values: patent US6579883B1, “Fluorinated 3,4-dihydroquinoline derivatives used as NOS inhibitors” (Schering Aktiengesellschaft, priority 1998, dated 2003).
